Measurements taken from PubChem BioAssay (NCI).
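Test compounds were applied to cells in 96-well plates for 48 hours at 5 doses. GI50 = concentration required for 50% inhibition of growth. Definition used: TGI = concentration required for complete inhibition of growth.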

Legend:
Assay in all cases: inhibition of tumour cell growth, NCI panel, 48 h
U251 CNS = tested on: U251 CNS
SNB-75 CNS = tested on: SNB-75 CNS
RPMI-8226 leukemia = tested on: RPMI-8226 leukemia
COLO 205 colon = tested on: COLO 205 colon
SR leukemia = tested on: SR leukemia
NCI-H460 lung = tested on: NCI-H460 lung
SK-MEL-5 melanoma = tested on: SK-MEL-5 melanoma
OVCAR-5 ovarian = tested on: OVCAR-5 ovarian
TK-10 renal = tested on: TK-10 renal
786-0 renal = tested on: 786-0 renal
BT-549 breast = tested on: BT-549 breast
SK-OV-3 ovarian = tested on: SK-OV-3 ovarian
A498 renal = tested on: A498 renal
MDA-MB-468 breast = tested on: MDA-MB-468 breast
NCI-H522 lung = tested on: NCI-H522 lung
T-47D breast = tested on: T-47D breast
ACHN renal = tested on: ACHN renal
HCT-15 colon = tested on: HCT-15 colon
KM12 colon = tested on: KM12 colon
NCI-H226 lung = tested on: NCI-H226 lung
MCF7 breast = tested on: MCF7 breast
SF-295 CNS = tested on: SF-295 CNS
RXF 393 renal = tested on: RXF 393 renal
OVCAR-3 ovarian = tested on: OVCAR-3 ovarian
HT29 colon = tested on: HT29 colon
CAKI-1 renal = tested on: CAKI-1 renal
MOLT-4 leukemia = tested on: MOLT-4 leukemia
HS 578T breast = tested on: HS 578T breast
HCC-2998 colon = tested on: HCC-2998 colon
SK-MEL-28 melanoma = tested on: SK-MEL-28 melanoma
SF-539 CNS = tested on: SF-539 CNS
HOP-62 NSCLC = tested on: HOP-62 NSCLC
PC-3 prostate = tested on: PC-3 prostate
SN12C renal = tested on: SN12C renal
EKVX NSCLC = tested on: EKVX NSCLC
K-562 leukemia = tested on: K-562 leukemia
UACC-62 melanoma = tested on: UACC-62 melanoma
IGROV1 ovarian = tested on: IGROV1 ovarian
OVCAR-4 ovarian = tested on: OVCAR-4 ovarian
MDA-MB-435 = tested on: MDA-MB-435
NCI-H23 lung = tested on: NCI-H23 lung
OVCAR-8 ovarian = tested on: OVCAR-8 ovarian
MDA-MB-231 breast = tested on: MDA-MB-231 breast
LOX IMVI melanoma = tested on: LOX IMVI melanoma
SF-268 CNS = tested on: SF-268 CNS
DU-145 prostate = tested on: DU-145 prostate
HL-60(TB) leukemia = tested on: HL-60(TB) leukemia
MALME-3M melanoma = tested on: MALME-3M melanoma
M14 melanoma = tested on: M14 melanoma
HOP-92 NSCLC = tested on: HOP-92 NSCLC
SW-620 colon = tested on: SW-620 colon
UACC-257 melanoma = tested on: UACC-257 melanoma
A549 NSCLC = tested on: A549 NSCLC
SNB-19 CNS = tested on: SNB-19 CNS
CCRF-CEM leukemia = tested on: CCRF-CEM leukemia
HCT-116 colon = tested on: HCT-116 colon
SK-MEL-2 melanoma = tested on: SK-MEL-2 melanoma
UO-31 renal = tested on: UO-31 renal

SMILES: O=C(O)c1ccc(-c2ccc(/C=N/NC(=O)c3[nH]c4ccc(Br)cc4c3-c3ccccc3)s2)cc1
- GI50 (U251 CNS): 5.98 µM
- TGI (U251 CNS): 22 µM
- GI50 (SNB-75 CNS): 11.2 µM
- TGI (SNB-75 CNS): 44.8 µM
- GI50 (RPMI-8226 leukemia): 6.05 µM
- TGI (RPMI-8226 leukemia): 51.3 µM
- GI50 (COLO 205 colon): 16.1 µM
- TGI (COLO 205 colon): 33.9 µM
- GI50 (SR leukemia): 13.7 µM
- TGI (SR leukemia): 58 µM
- GI50 (NCI-H460 lung): 12.3 µM
- TGI (NCI-H460 lung): 31.5 µM
- GI50 (SK-MEL-5 melanoma): 12 µM
- TGI (SK-MEL-5 melanoma): 27 µM
- GI50 (OVCAR-5 ovarian): 17.1 µM
- TGI (OVCAR-5 ovarian): 31.5 µM
- GI50 (TK-10 renal): 26.8 µM
- TGI (TK-10 renal): > 100 µM
- GI50 (786-0 renal): 3.13 µM
- TGI (786-0 renal): 11 µM
- GI50 (BT-549 breast): 1950 nM
- TGI (BT-549 breast): 5.83 µM
- GI50 (SK-OV-3 ovarian): 20 µM
- TGI (SK-OV-3 ovarian): 41.2 µM
- GI50 (A498 renal): 20.7 µM
- TGI (A498 renal): 52 µM
- GI50 (MDA-MB-468 breast): 19.1 µM
- TGI (MDA-MB-468 breast): 59.7 µM
- GI50 (NCI-H522 lung): 15.9 µM
- TGI (NCI-H522 lung): 33.4 µM
- GI50 (T-47D breast): 13.9 µM
- TGI (T-47D breast): 59.5 µM
- GI50 (ACHN renal): 11.4 µM
- TGI (ACHN renal): 55.7 µM
- GI50 (HCT-15 colon): 5.27 µM
- TGI (HCT-15 colon): 20 µM
- GI50 (KM12 colon): 15.3 µM
- TGI (KM12 colon): 39.7 µM
- GI50 (NCI-H226 lung): 21 µM
- TGI (NCI-H226 lung): 75.5 µM
- GI50 (MCF7 breast): 18.1 µM
- TGI (MCF7 breast): 65.1 µM
- GI50 (SF-295 CNS): 7.34 µM
- TGI (SF-295 CNS): 26.2 µM
- GI50 (RXF 393 renal): 13.9 µM
- TGI (RXF 393 renal): 57.7 µM
- GI50 (OVCAR-3 ovarian): 13.7 µM
- TGI (OVCAR-3 ovarian): 35.8 µM
- GI50 (HT29 colon): 12.7 µM
- TGI (HT29 colon): 30.4 µM
- GI50 (CAKI-1 renal): 21.1 µM
- TGI (CAKI-1 renal): 64.1 µM
- GI50 (MOLT-4 leukemia): 6.42 µM
- TGI (MOLT-4 leukemia): 34.2 µM
- GI50 (HS 578T breast): 6.67 µM
- TGI (HS 578T breast): 38.9 µM
- GI50 (HCC-2998 colon): 11.8 µM
- TGI (HCC-2998 colon): 27.3 µM
- GI50 (SK-MEL-28 melanoma): 7.17 µM
- TGI (SK-MEL-28 melanoma): 21.6 µM
- GI50 (SF-539 CNS): 6.79 µM
- TGI (SF-539 CNS): 22.2 µM
- GI50 (HOP-62 NSCLC): 12.3 µM
- TGI (HOP-62 NSCLC): 30.4 µM
- GI50 (PC-3 prostate): 4.79 µM
- TGI (PC-3 prostate): 37 µM
- GI50 (SN12C renal): 9.73 µM
- TGI (SN12C renal): 29.7 µM
- GI50 (EKVX NSCLC): 14.4 µM
- TGI (EKVX NSCLC): 39.1 µM
- GI50 (K-562 leukemia): 6.15 µM
- TGI (K-562 leukemia): 37.1 µM
- GI50 (UACC-62 melanoma): 11.7 µM
- TGI (UACC-62 melanoma): 24.6 µM
- GI50 (IGROV1 ovarian): 7.85 µM
- TGI (IGROV1 ovarian): 23.1 µM
- GI50 (OVCAR-4 ovarian): 7.68 µM
- TGI (OVCAR-4 ovarian): 44.9 µM
- GI50 (MDA-MB-435): 6.81 µM
- TGI (MDA-MB-435): 28.2 µM
- GI50 (NCI-H23 lung): 21.7 µM
- TGI (NCI-H23 lung): 54.5 µM
- GI50 (OVCAR-8 ovarian): 15.9 µM
- TGI (OVCAR-8 ovarian): 66.9 µM
- GI50 (MDA-MB-231 breast): 20.6 µM
- TGI (MDA-MB-231 breast): 47.2 µM
- GI50 (LOX IMVI melanoma): 25.7 µM
- TGI (LOX IMVI melanoma): > 100 µM
- GI50 (SF-268 CNS): 13.5 µM
- TGI (SF-268 CNS): 46 µM
- GI50 (DU-145 prostate): 24.9 µM
- TGI (DU-145 prostate): > 100 µM
- GI50 (HL-60(TB) leukemia): 4.31 µM
- TGI (HL-60(TB) leukemia): 25 µM
- GI50 (MALME-3M melanoma): 16.3 µM
- TGI (MALME-3M melanoma): 38.2 µM
- GI50 (M14 melanoma): 6.32 µM
- TGI (M14 melanoma): 30.3 µM
- GI50 (HOP-92 NSCLC): 4.41 µM
- TGI (HOP-92 NSCLC): 22 µM
- GI50 (SW-620 colon): 13.8 µM
- TGI (SW-620 colon): 34.1 µM
- GI50 (UACC-257 melanoma): 18.7 µM
- TGI (UACC-257 melanoma): 50.2 µM
- GI50 (A549 NSCLC): 13.5 µM
- TGI (A549 NSCLC): 44.6 µM
- GI50 (SNB-19 CNS): 6.76 µM
- TGI (SNB-19 CNS): 20.5 µM
- GI50 (CCRF-CEM leukemia): 4.44 µM
- TGI (CCRF-CEM leukemia): 26.9 µM
- GI50 (HCT-116 colon): 3.7 µM
- TGI (HCT-116 colon): 12.6 µM
- GI50 (SK-MEL-2 melanoma): 15.6 µM
- TGI (SK-MEL-2 melanoma): 35.7 µM
- GI50 (UO-31 renal): 10.4 µM
- TGI (UO-31 renal): 33.9 µM
